Test results: PMC13223490, “New Indazole Derivatives as Potential Scaffolds for the Development of Anticancer, Antiviral, and Anti-tuberculosis Chemotherapeutic Compounds” (Current Medicinal Chemistry, 2025)
Values after ≈ are worked out from the molar mass of the structure shown. Values joined by “and” are separate entries in the source; they are usually repeats but may differ in a detail not shown here. Identical values can stand only once. “Also recorded” adds a separate entry of the source. Counter-ions that a name gives are not always drawn. Like-named read-outs stand apart in the source and are kept apart here.

Columns and labels:
K562 leukemia cells = experiment: Cytotoxicity on tumor cell cultures (resazurin, 48 h); type: cell-based; conditions: K562, 48 h
Protocol: (§1) The total well volume was 150 μl.

HL60 leukemia cells = experiment: as above; type: cell-based; conditions: HL60, 48 h
Protocol: as §1

[1] = test system: SH-SY5Y neuroblastoma cells; experiment: as above; type: cell-based
Protocol: as §1

M. tuberculosis H37Rv = experiment: Bacteriostatic activity, proportion method, BACTEC MGIT 960, Middlebrook 7H9; type: cell-based, Mycobacterium tuberculosis; conditions: for MIC50: 50% inhibition of mycobacterial growth; for effect on growth of M. tuberculosis H37Rv culture, in words: up to the maximum tested concentration
[2] = test system: SH-SY5Y, K-562, HL-60, GBM5522 cells; experiment: Cytotoxicity screening, summary over the cancer cell panel; type: cell-based
Protocol: as §1
Cytotoxicity screening of the synthesized indazole derivatives was performed on the cell line of neuroblastoma SH-SY5Y, lymphoblastic cells K-562, promyeloblastic cells HL-60, low-passage variant of highly differentiated multiform glioblastoma GBM5522 (Table 2).

[3] = test system: GBM5522 low-passage primary glioblastoma multiforme cells; experiment: Cytotoxicity on tumor cell cultures (resazurin, 48 h)
Protocol: The low-passage primary glioblastoma multiforme cell culture GBM5522 was previously described [37]. Cells were cultured in DMEM (Servicebio) containing 10% fetal bovine serum (FBS) at 37°C in an atmosphere of 5% CO2. The cells were plated in 96-well plates at a density of 1x10^4 cells/well. The test substances were then added in concentrations ranging from 0.8 to 100 μM. DMSO at a concentration of 1% was used as a control, corresponding to the percentage of DMSO when the highest concentration of the drug was added. The total well volume was 150 μl. The cells were incubated for 48 hours at 37°C in a 5% CO2 atmosphere. Resazurin was added in a concentration of 10 μl of a 0.5 mg/mL solution in phosphate-buffered saline. The incubation was carried out under the same conditions for 4 hours, and then the fluorescence level was measured at an excitation wavelength of 560 nm and an emission wavelength of 590 nm using a CLARIOstar multimodal microplate reader (BMG Labtech, Germany). The data obtained for each concentration were normalized to the control, and the IC50 was calculated using the nonlinear regression method. The minimum number of repetitions for each concentration was three. The GraphPad Prism software v.9.5.1 (GraphPad Software, San Diego, USA) was used to calculate the IC50 and plot the percentage of living cells versus the concentration of the drug.

MDCK cells = experiment: Cytotoxic effect in MDCK cell culture (MTS); type: cell-based; conditions: MDCK; concentration reducing the cell number by 50%
Protocol: (§2) Multiple dilutions of solutions of all compounds were prepared in 24-well plates by titration into 8 wells, starting from a dilution of 1:10 to 1:1280. The resulting serial dilutions were transferred to the wells of the test plates with cells. Each point was tested in 4 parallel wells. The working medium was added to the wells of the cell control. […] Then, the culture medium was removed from the plates, and 100 μL of the medium and 20 μL of the MTS solution were added to the cell culture monolayer in each well. After incubation for 3 hours at 37°C, the results were recorded on a BIO-RAD automatic reader at a wavelength of 490 nm. Reference filter - 630 nm.
(§3) To obtain statistically reliable results, the experiments were performed 2-3 times. The values of CC50 and IC50 were calculated using generally accepted methods for biological research, as implemented in the Microsoft Excel 5.0 and GraphPad Prism 6.01 software packages. The working model for CC50 analysis was a 4-parameter logistic curve equation (menu items “Nonlinear regression” - “Sigmoidal dose-response (variable slope)”). For IC50 analysis, a 4-parameter logistic curve equation was adopted (menu items “Nonlinear regression” - “log (inhibitor) vs. response (variable slope)”). Based on the obtained data, the selectivity index (SI) was calculated using the equation: SI = CC50/ IC50.

SARS-CoV-2 = experiment: microbe, parasite or virus in culture; type: cell-based; conditions: for IC50: Vero E6
[4] = test system: influenza virus A/California/7/2009 (H1N1)pdm09; experiment: microbe, parasite or virus in culture; type: cell-based, human influenza virus A; conditions: for SI (selectivity index): ratio of CD50 (CC50) to IC50, MDCK; for maximum reduction of the infectious titer: MDCK cell culture
mycobacteria = test system: mycobacteria; parameters: method as in PMID 27704782; conditions: growth of mycobacteria; cited from earlier work
M. tuberculosis [5] = test system: M. tuberculosis; parameters: method as in PMID 37111241; conditions: cited from earlier work
[6] = Cytotoxic effect in MDCK cell culture (MTS); type: cell-based; conditions: dog
Protocol: as §2, §3

white outbred mice = experiment: in vivo; type: in vivo
Description: (§4) The toxicity of the compound was studied according to published procedure in compliance with the guidelines.
(§5) In this regard, one representative of the group, lead compound 8, was studied for acute toxicity in […] mice. White outbred mice of both sexes, weighing 25-30 g and aged 12-13 weeks, were used as biomodels. The animals were obtained from the nursery of the Federal State Unitary Enterprise «Research Institute for Hygiene, Toxicology and Occupational Pathology» of the Federal Medical and Biological Agency of Russia. The total number of animals was 20 heads. The experimental and control groups consisted of 4 animals with an equal number of males and females.
(§6) The toxic effect of the specified substance was studied using the described procedure. The substance was administered intragastrically using an atraumatic metal probe at a rate of 0.05 mL per 10 g of body weight in a dose range from 20 mg/kg to 80 mg/kg. Control animals received the solvent (99% DMSO) in the same volume in a similar way.
(§7) After the substance was administered, the animals were continuously observed for 4 hours, then periodically for 14 days, recording clinical manifestations of intoxication and the fact of death, after which lethal doses were calculated.
(§8) Dead animals were autopsied as soon as possible after death, macroscopic manifestations of the effect of the test compound were noted, and internal organs were collected for subsequent histological examination as described earlier.
(§9) Lethal doses were calculated using the probit analysis method, as described by D.J. Finney, in Microsoft Excel 2013 on the 14th day of the experiment.

in vivo = type: in vivo, mice; conditions: both sexes, white outbred, mouse, in vivo, po; mice, single intragastric administration, day 14
Description: as §4, §5, §6, §7, §8, §9

[7] = test system: continuous leukemia cell lines; parameters: method as in PMID 28587395, PMID 11531262; conditions: read-out: half-maximal effective concentrations; cited from earlier work
mouse = mouse model studies; cited from earlier work
M. tuberculosis [8] = conditions: cited from earlier work
[9] = 75% inhibition of mycobacterial growth
[10] = Mycobacterium tuberculosis, H37RV, 75% inhibition of mycobacterial growth
[11] = Mycobacterium tuberculosis, H37RV, read-out: MIC 50
[12] = Severe acute respiratory syndrome coronavirus 2, Vero C1008
[13] = mice, single intragastric administration, day 14

Molecule | Δlgmax (SARS-CoV-2) | Δlgmax [4] | IC50 (K562 leukemia cells; Homo sapiens) | IC50 (HL60 leukemia cells; Homo sapiens, HL-60) | IC50 ([1]; Homo sapiens) | MIC50 (M. tuberculosis H37Rv; [11]) | IC50 ([3]; 48 h) | CC50 at 66 h [6] | IC50 (SARS-CoV-2; [12]) | IC50 ([4]; H1N1, MDCK) | SI (selectivity index) [4] | other results
6-(cyclopenten-1-en-1-yl)-1H-indazole [Compound 12] | 0.5 | 0.25 | – | – | – | – | – | – | – | – | – | IC50 (K562 leukemia cells): 22.3 ± 4.3 µM; IC50 (HL60 leukemia cells): > 100 µM; IC50 [1]: > 100 µM; MIC50 (M. tuberculosis H37Rv): 40 µg/mL; MIC50 (M. tuberculosis H37Rv; read-out: MIC 50): 217 µM; MIC (M. tuberculosis H37Rv; [9]): 217 µM; MIC 75 (M. tuberculosis H37Rv; [9]): 40 µg/mL; effect on growth of M. tuberculosis H37Rv culture, in words (M. tuberculosis H37Rv): best antibacterial activity; cytotoxicity in words ([2]; cancer cell lines panel): inactive; IC50 ([3]; GBM5522, 48 h): > 100 µM; CC50 (MDCK cells): 4 µM; IC50 (SARS-CoV-2): > 3 µM; IC50 ([4]; read-out: IC50): > 2 µM
Cc1n[nH]c(C)c1S(=O)(=O)Nc1ccc2cn[nH]c2c1 [Compound 4, N-(1H-indazol-6-yl)-3,5-dimethyl-1H-pyrazole-4-sulfonamide] | – | – | – | – | – | – | – | – | – | – | – | MIC (mycobacteria): 2 µM (≈ 0.583 µg/mL)
O=C(N/N=C/c1ccc2c[nH]nc2c1)c1ccncc1 [Compound 5] | – | – | – | – | – | – | – | – | – | – | – | MIC (M. tuberculosis [5]): 0.11 µM (≈ 0.0292 µg/mL)
c1cc2[nH]ncc2cc1-c1cn[nH]c1 [Compound 7, 5-(1H-pyrazol-4-yl)-1H-indazole] | 0.25 | 0 | 24.4 ± 3.1 µM | 23.7 ± 5 µM | 15.5 ± 5.3 µM | 40 µg/mL and 217 µM | 36.8 ± 2 µM | 100 µM | > 50 µM | > 20 µM | <5 | MIC (M. tuberculosis H37Rv; [10]): 60 µg/mL and 326 µM
c1cc2cn[nH]c2cc1-c1cn[nH]c1 [Compound 8, 6-(1H-pyrazol-4-yl)-1H-indazole] | 0.75 | 2.0 | 6.7 ± 0.8 µM | 9.9 ± 0.8 µM | 4.2 ± 0.9 µM | 40 µg/mL and 217 µM | 13.8 ± 1.1 µM | 330 µM | > 6 µM | 6 µM | 55 | MIC (M. tuberculosis H37Rv; [10]): 60 µg/mL and 326 µM; cytotoxicity in words [2]: significant cytotoxicity; IC50 ([2]; SH-SY5Y, K-562, HL-60, GBM5522, read-out: IC50 range over cancer cell lines): 4 to 14 µM; Number of Animals in the Group/Number of Dead (white outbred mice; 20 mg/kg intragastric): 4/0; Number of Animals in the Group/Number of Dead (white outbred mice; 40 mg/kg intragastric): 4/2; Number of Animals in the Group/Number of Dead (white outbred mice; 50 mg/kg intragastric): 4/3; necropsy findings (white outbred mice; 80 mg/kg and 50 mg/kg, dead animals): uncoagulated blood was found in the heart, pulmonary hyperemia was present, and blood was observed in the chest; Number of Animals in the Group/Number of Dead (white outbred mice; 80 mg/kg intragastric): 4/4; pathomorphological examination (white outbred mice; 80 mg/kg, male mouse): focal hemorrhages in the gastric mucosa and pronounced swelling and edema of the submucosal layer; clinical picture of intoxication (white outbred mice; lethal doses, first day after administration): convulsions, dysfunction of the hind limbs, increasing hypodynamia; LD10 (white outbred mice; [13]): 26,2 mg/kg; LD16 (white outbred mice; [13]): 28,8 mg/kg; LD84 (white outbred mice; [13]): 55,6 mg/kg; LD50 (in vivo): 40 mg/kg; maximum reduction of the infectious titer [4]: 2.0 logTCID50
c1ncc(-c2ccc3[nH]ncc3c2)cn1 [Compound 9, 5-(pyrimidin-5-yl)-1H-indazole] | 0 | 1.0 | > 100 µM | > 100 µM | > 100 µM | 40 µg/mL and 204 µM | > 100 µM | 1050 µM | > 50 µM | > 100 µM | <10 | MIC (M. tuberculosis H37Rv; [10]): 40 µg/mL and 204 µM; effect on growth of M. tuberculosis H37Rv culture, in words (M. tuberculosis H37Rv): best antibacterial activity; cytotoxicity in words [2]: inactive
c1cncc(-c2ccc3[nH]ncc3c2)c1 [Compound 10, 5-(pyridin-3-yl)-1H-indazole] | 0.75 | 1.5 | 5.5 ± 1.5 µM | > 100 µM | 14.3 ± 5 µM | – | 95.4 ± 5.2 µM | 610 µM | > 25 µM | 25 µM | 24,4 | effect on growth of M. tuberculosis H37Rv culture, in words (M. tuberculosis H37Rv): did not affect the growth; also recorded: completely devoid of the ability to suppress the growth of mycobacteria; maximum reduction of the infectious titer [4]: 1.5 logTCID50
c1ncc(-c2ccc3cn[nH]c3c2)cn1 [Compound 11, 6-(pyrimidin-5-yl)-1H-indazole] | 0 | 0.5 | > 100 µM | > 100 µM | > 100 µM | 60 µg/mL and 306 µM | > 100 µM | 1120 µM | > 200 µM | > 200 µM | <5 | cytotoxicity in words [2]: inactive
CCOC(=O)C1=C[C@@H](OC(CC)CC)[C@H](NC(C)=O)[C@@H](N)C1 [Oseltamivir, (3R,4R,5S)-4-acetamido-5-amino-3-(1-ethylpropo-xy)-1-cyclohexene-1-carboxylic acid ethyl ester phosphate salt, reference compound] | – | 6.0 | – | – | – | – | – | 820 µM | – | 0.61 µM | – | –
COc1cc([C@@H]2c3cc4c(cc3[C@@H](O[C@@H]3O[C@@H]5CO[C@@H](C)O[C@H]5[C@H](O)[C@H]3O)[C@H]3COC(=O)[C@H]23)OCO4)cc(OC)c1O [etoposide] | – | – | – | – | – | – | – | – | – | – | – | EC50 [7]: 10 to 100 µM; nonlethal doses (mouse): ~ 50 mg/kg
NNC(=O)c1ccncc1 [isoniazid] | – | – | – | – | – | – | – | – | – | – | – | critical concentration (M. tuberculosis [8]; control drugs): 1 μg/mL and 0.73 µM; MIC (M. tuberculosis [5]): 0.36 µM (≈ 0.0494 µg/mL)
NC(=O)c1cnccn1 [pyrazinamide] | – | – | – | – | – | – | – | – | – | – | – | critical concentration (M. tuberculosis [8]): 100 μg/mL and 812 µM
CO[C@H]1/C=C/O[C@@]2(C)Oc3c(C)c(O)c4c(O)c(c(/C=N/N5CCN(C)CC5)c(O)c4c3C2=O)NC(=O)/C(C)=C\C=C\[C@H](C)[C@H](O)[C@@H](C)[C@@H](O)[C@@H](C)[C@H](OC(C)=O)[C@@H]1C [rifampicin] | – | – | – | – | – | – | – | – | – | – | – | critical concentration (M. tuberculosis [8]; control drugs): 0.5 μg/mL and 0.61 µM
